Measured values: paper PMC7300217, “Surfactin Like Broad Spectrum Antimicrobial Lipopeptide Co-produced With Sublancin From Bacillus subtilis Strain A52: Dual Reservoir of Bioactives” (Frontiers in Microbiology, 2020)

Key:
[1] = Collapse drop assay (CDA); assay type: physicochemical; settings: 5 μl of peptide (10 μg/ml) on mineral oil, observed after 1 min
Description: The surfactant property of peptide was determined using the qualitative drop-collapse assay ([Youssef et al., 2004]). Mineral oil (2 μl) was added to 96-well microtiter plate and equilibrated for 24 h at 37°C. After equilibration 5 μl of purified peptides (10 μg/ml) were added to the surface of the oil and drop shape was observed after 1 min using magnifying glass. Triton X-100 and water were used as positive and negative control, respectively.

C. albicans MTCC 183 = test: Scanning electron microscopy of treated cells; assay type: cell-based, Candida albicans; settings: 2X and 5X MIC, 37°C overnight
Description: (§1) The effect of peptide on cell membrane was determined by scanning electron microscopy (SEM) and transmission electron microscopy (TEM) after treatment with AMPs. For this, test strains S. aureus MTCC 1430 and C. albicans MTCC 183 were cultured to mid-log phase in respective media. The cells were harvested by centrifugation at 10,000 × g for 10 min, washed thrice with 1X PBS, and re-suspended to adjust an OD600 of 0.2. […] Following the incubation, cells were processed for SEM and TEM as described ([Raje et al., 2006]). The specimens were completely dried using freeze drier, coated with gold, and visualized under a scanning electron microscope (ZEISS, Germany). For TEM (JEOL, JEM 2100, United States), cells were treated with peptide, washed, and subjected to negative stain 0.1% sodium phosphotungstate (Sigma, United States) for visualization. Effect of A52 lipopeptide on fungal spore was observed through a phase contrast microscope (Nickon H600L, Japan).

S. aureus MTCC 1430 [2] = test: Transmission electron microscopy of treated cells; assay type: cell-based, Staphylococcus aureus; settings: 2X and 5X MIC, 37°C overnight
Description: as §1

proteinase K = molecular target: T1, proteinase K (Parengyodontium album, UniProt P06873); test: Sensitivity to proteolytic enzyme, residual antimicrobial activity; assay type: in vitro ADME; settings: 6h/ 37°C, enzyme 0.1, 1.0 and 5.0 mg/ml in 50 mM phosphate buffer pH 7.0, enzyme deactivated in boiling water 5 min
T1 construct: purchased Sigma, United States
Description: Sensitivity of purified peptides toward temperature, pH, and non-specific proteases was confirmed by performing bioassays. The pH stability was determined by adjusting the pH 2.0–12.0 of peptide aliquots (using 10 mM HCl or NaOH) and incubating for 4 h at room temperature. Samples were neutralized to pH 7.0 before processing for antimicrobial assay. To determine temperature susceptibility, peptides were incubated at different temperatures ranging from 37 to 100°C for 1 h and 121°C for 15 min and residual antimicrobial activity was determined at RT by well diffusion assay. Proteolytic enzymes trypsin and proteinase K (Sigma, United States) were used at three different concentrations (0.1, 1.0, and 5.0 mg/ml) to observe their effect on the peptide. The enzyme solutions were prepared in 50 mM phosphate buffer (pH 7.0). All reactions were performed at 37°C for 6 h followed by deactivation of enzyme by heating the solution in boiling water for 5 min before performing the activity assay.

M. luteus MTCC 106 = test: MIC, microtiter plate dilution assay; assay type: cell-based, Micrococcus luteus; settings: 5 × 10^5 CFU/ml, 37°C, OD600 after 24 h, triplicate
Description: (§2) The antimicrobial activity was tested by well diffusion assay as mentioned earlier ([Singh et al., 2014]). Strain A52 was grown for 24 h in 500 ml of nutrient broth (NB, Hi-media, India) using 1000 ml flask and subsequently cells were removed by centrifugation (10,000 rpm for 15 min at 4°C). Supernatant was filtered through 0.22 μm filter (Millipore, United States) to obtain cell-free fermented broth (CFB) that was used for antimicrobial assay (50 μl) against various indicator strains and the activity was measured as diameter of inhibition zone. […]
(§3) The minimum inhibitory concentration (MIC) of HPLC purified peptides was evaluated by using microtiter plate dilution assay. […] OD was measured at 600 nm after 24 and 48 h for bacteria and yeast, respectively, using ELISA microplate reader (Thermo, United States). MIC against phytopathogenic fungi was determined using 96-well microtiter plate assay ([Kaur et al., 2016]). […] The microplates were incubated at 25°C and readings were recorded at 600 nm after 48 h. […]

S. aureus MTCC 1430 [3] = test: MIC, microtiter plate dilution assay; assay type: cell-based, Staphylococcus aureus; settings: 5 × 10^5 CFU/ml, 37°C, OD600 after 24 h, triplicate
Description: as §2, §3

S. aureus MTCC 1430 [4] = test: Time kill assay; assay type: cell-based, Staphylococcus aureus; settings: 5X MIC, cells in PBS, CFU plated on nutrient agar
Description: Purified AMPs were used to perform time kill assay against S. aureus MTCC 1430 as mentioned earlier ([Baindara et al., 2016]). Actively growing bacterial culture (0.2–0.3 OD at 600 nm) was centrifuged (10,000 rpm for 15 min at 4°C) and washed thrice with sterile PBS buffer. […] Upon incubation for different time intervals, cells were removed from reaction mixture by centrifugation and washed with PBS buffer. Bacterial culture without AMP treatment was used as negative control. Samples were withdrawn at the end of different treatment time points starting from 0 to 8 h, bacterial cells were pelleted, serially diluted, and cell suspensions were plated on nutrient agar plates. For each treatment, negative controls were also processed under identical conditions and plated on NA. CFU at different time intervals were recorded after overnight incubation at 37°C.

T1 sequence (P06873 106-384): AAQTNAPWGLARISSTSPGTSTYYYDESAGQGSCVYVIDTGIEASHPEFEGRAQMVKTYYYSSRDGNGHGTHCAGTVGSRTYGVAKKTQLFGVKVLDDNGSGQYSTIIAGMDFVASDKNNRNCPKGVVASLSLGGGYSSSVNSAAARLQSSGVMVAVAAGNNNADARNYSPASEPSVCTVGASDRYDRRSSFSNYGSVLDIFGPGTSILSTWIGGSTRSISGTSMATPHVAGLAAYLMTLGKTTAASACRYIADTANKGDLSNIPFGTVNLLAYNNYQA

Glu^1-Leu/Ile^2-Leu^3-Val^4-Asp^5-Leu^6-Leu/Ile^7 and a β-OH hexadecane fatty acid chain (lariat or depsi) [Lipopeptide A52, cyclic surfactin-like lipopeptide, 7 amino acids and C16 β-hydroxy fatty acid, 1061.9 Da, from B. subtilis strain A52]
drop collapse (surfactant property) [1]: positive
cell morphology in SEM images (C. albicans MTCC 183): disintegrated outer cell membrane
cell morphology in TEM images (S. aureus MTCC 1430 [2]): wall rupturing and cellular lysis
Residual activity (%), Proteinase k (proteinase K): 100%
MIC value, M. luteus MTCC 106 (M. luteus MTCC 106): 1 µg/mL
MIC value, S. aureus MTCC 1430 (S. aureus MTCC 1430 [3]): 4 µg/mL
time of treatment to complete killing / complete reduction of bacterial load (S. aureus MTCC 1430 [4]): ≤ 7 h
